Results from patent US6841538B1, “Combination therapy using nucleic acids and radio therapy” (priority 1998, dated 2005).

Experiments:
tumor cells = conditions: Son and Huang 1994; cited from earlier work
MCA 207 tumor [1] = assay: Tumor growth, combination with pINEX-IL-12 in INEX 324; type: in vivo, C57 BL/6 mice; conditions: subtherapeutic vincristine (OncoTCS 0.5 mg/kg i.v.) then INEX 324 pINEX-IL-12 100 μg DNA i.v.
Procedure: C57 BL/6 mice are seeded subcutaneously with MCA 207 tumor cells. Tumor seeding is performed by standard techniques. Mice were seeded subcutaneously on the hip flank with 100,000 MCA-207 fibrosarcoma tumor cells by sub-cutaneous injection on day zero.
On days 7-10, when tumors had developed to useable sizes, mice were injected i.v. via tail vein with approximately 0.5 mg/kg of OncoTCS ([…]).
At 8, 16, 24, 30, 36, 42 or […] after OncoTCS treatment, the mice were injected i.v. via tail vein with INEX 324 (100 μg DNA pINEX-IL-12 with about 500 μg lipid all in about 200 μL total volume). Control mice received HBS.

MCA 207 tumor [2] = assay: Tumor growth, combination with INEX 303 pINEX-TK10 and ganciclovir; type: in vivo, C57 BL/6 mice; conditions: OncoTCS 0.5 mg/kg i.v. then INEX 303 pINEX-TK10 i.v. and ganciclovir i.p.
Procedure: C57 BL/6 mice are seeded subcutaneously with MCA 207 tumor cells. Tumor seeding is performed by standard techniques. Mice are seeded subcutaneously on the hip flank with 100,000 MCA-207 fibrosarcoma tumor cells by […] injection on day zero. The tumor cells are cultivated and prepared according to standard techniques using RPMI media with 10% Fetal Bovine Serum (see, for example, Current Protocols in Molecular Biology, Eds. Ausubel, F. M., et al.)
At 8, 16, 24, 30, 36, 42 or […] after OncoTCS treatment, the mice are injected i.v. via tail vein with INEX 303 containing pINEX-TK10 prepared as described herein (100 μg DNA with about 500 μg lipid all in about 200 μL total volume). Control mice receive HBS.
1 mg ganciclovir, which is in 200 μL PBS (approximately 50 mg/kg; commercially available from Hoffman La Roche) is administered by intraperitoneal injection 12 h and 24 h after SPLP administration.

SK-OV-3 cells [3] = assay: Uptake of YOYO-1 labeled plasmid lipoplexes by flow cytometry; type: cell-based, human; conditions: aphidicolin 5 μg/mL 16 hr; vs control cells
Procedure: (§1) SK-OV-3 or HeLa-luc cells were seeded at a density of 30,000 cells per well in a 24 well plate in growth media 24 hours prior to treatment with aphidicolin. Aphidicolin (Sigma) was reconstituted in phosphate buffered saline containing 0.5% DMSO. Cells were incubated with aphidicolin at a final concentration of 5 μg/mL in 1 mL of media per well for 16 hours prior to transfection. Transfection was accomplished by the addition of 0.5 μg of formulated DNA to each well.
For the plasmid DNA uptake experiments, the method previously described (Zabner, et al., J. Biol. Chem., 270:18997-19007 (1995); Tseng, et al., Biotechnol. Bioeng., 50:548-554 (1996)) using fluorescently labeled DNA and flow cytometry was used with the following modifications. Plasmid DNA was fluorescently labeled by incubation with YOYO-1 iodide (Molecular Probes, Eugene, Oreg.) at a dye:basepair ratio of […] for 10 minutes at 4° C. The sample was then dialyzed twice against autoclaved deionized water.
Lipoplexes were prepared using YOYO-1 labeled DNA and incubated with cells. […] Fluorescence was measured in the FL1 channel (λemission=530+/−15 nm) of a FACSort flow cytometer (Becton-Dickinson, San Jose, Calif.) equipped with an Ar- ion laser (λexcitation=488 nm). Data was collected from 10,000 cells and analyzed for fluorescence using CellQuest software.

SK-OV-3 cells [4] = assay: Lipid mediated transfection (lipoplexes or SPLPs), luciferase activity; type: cell-based, human; conditions: for increase in luciferase expression, (+/−) vs (−/−) culture: peak; for difference in luciferase activity between (−/−) and (+/+) cultures: 26 hrs
Procedure: Lipoplexes were prepared as follows: All reagents were sterile and cooled to 4° C. prior to complex preparation. A solution containing 62 μM dioleoyldimethylammonium chloride: 1,2-sn-dioleoylphosphatidylethanolamine (DODAC:DOPE) large unilamellar vesicles (LUVs) and a solution containing 10 μg/mL plasmid DNA were prepared in distilled water. The DNA was added to an equal volume of lipid dropwise, while vortexing. The solution was incubated on ice for 30 minutes prior to transfection. The resulting lipoplexes contained a final DNA concentration of 0.5 μg/100 μL and the cationic lipid:DNA (+:−) charge ratio was 1:1.
Plasmid containing a therapeutic gene was encapsulated as SPLP using the detergent dialysis method of INEX 351. The SPLP contained 42.5:42.5:15 mol % of DOPE:DODAC:1-O-[2′-(w-methoxypolyethyleneglycol) succinoyl]-2-N-octoylsphingosine, (PEG-CerC8), at a lipid:DNA ratio of 15:1 (w/w). SPLPs were separated from empty liposomes by centrifugation through a discontinuous sucrose gradient.
as §1
Luciferase assays were performed using the Luciferase Assay System kit (Promega, Madison, Wis.) according to the manufacturer's protocol. Cell samples were washed twice with PBS, lysed by incubation with 200 μL of lysis buffer (0.1% triton in 250 mM NaH2PO4, pH 7.4) for 20 min. 20 μL of cell lysate was assayed (in duplicate) using a mL3000 microtiter plate luminometer (Dynex Technologies). A standard curve was determined by assaying 20 μL of serial dilutions of a 1 mg/mL luciferase standard (Boehringer Mannheim). Cell lysate was assayed for protein content using the bicinchoninic acid (BCA) colorimetric method. Briefly, in a 96 well plate, 95 μL of water and 100 μL of the Micro BCA protein assay working reagent (Pierce) were added to 5 μL of cell lysate. The plates were shaken on a rotary platform at 100 rpm for 10 minutes before being incubated at 37° C. for 2 hours. Absorbance was monitored at 570 nm (Dynatech MR5000 plate reader) and protein content calculated using a standard curve of varying concentrations of BSA.

SK-OV-3 cells [5] = assay: Semliki Forest Virus (SFV-luc) mediated luciferase gene expression; type: cell-based, human; conditions: SFV-luc m.o.i. 0.5
Procedure: as §1
Luciferase cDNA was cloned into the multiple cloning site of pSFV 1-3. Recombinant virus encoding luciferase was prepared according to the protocol described by Liljestrom and Garoff (Maniatis, et al., Molecular Cloning, Cold Spring Harbor, N.Y., 1981, pp. 93-94). Prior to infection of SK-OV-3 cells, virus particles were activated in 0.5 mg/mL chymotrypsin for 30 minutes at room temperature. Chymotrypsin was inactivated by the addition of aprotinin to a final concentration of 0.67 mg/mL. […]
(§2) Luciferase assays were performed using the Luciferase Assay System kit (Promega, Madison, Wis.) according to the manufacturer's protocol. […] A standard curve was determined by assaying 20 μL of serial dilutions of a 1 mg/mL luciferase standard (Boehringer Mannheim). […] Absorbance was monitored at 570 nm (Dynatech MR5000 plate reader) and protein content calculated using a standard curve of varying concentrations of BSA.

HeLa-luc cells = assay: Luciferase gene expression in stably transfected HeLa-luc cells; type: cell-based, human; conditions: HeLa-luc, 0, 6 and 24 hours after arrest vs untreated control cells
Procedure: SK-OV-3 cells human ovarian tumor cells, ATCC) were cultured in RPMI 1640 media (StemCell Technologies, Vancouver, B.C.) supplemented with 10% fetal bovine serum (Intergen). HeLa-luc cells were stably transfected with a luciferase reporter plasmid and cultured in Dulbecco's modified Eagle medium (StemCell Technologies, Vancouver, B.C.) supplemented with 10% fetal bovine serum and 400 μg/mL Geneticin (Gibco BRL).
as §1, §2

SK-OV-3 cells [6] = assay: Cell cycle status by propidium iodide flow cytometry; type: cell-based, human
Procedure: as §1
The cell cycle status of cultures was determined by flow cytometry of permeabilized cells that were stained with propidium iodide. Prior to harvesting, media was aspirated and the cells were washed twice with 2 mL phosphate buffered saline (PBS). After washing, 2-3 drops of pre-warmed trypsin-EDTA (0.25% trypsin, 1 mM EDTA; Gibco BRL) was added to each well and the plate was incubated at 37° C. until the cells had detached from the plate. Trypsin was inactivated by the addition of 1.5 mL of cold media; The samples were transferred to 6 mL polystyrene tubes (Becton-Dickenson, San Jose, Calif., USA) and centrifuged at 2000 rpm for 5 min (Beckman GS-6R, rotor GH3.8). Cells were fixed and permeabilized by incubation for 10 min in 70% methanol (pre-chilled to −70° C.). Samples were then centrifuged at 2000 rpm for 5 min and the cells were incubated in 0.5 mL of 150 μg/mL propidium iodide (Molecular Probes, Eugene, Oreg.) in PBS for 30 minutes on ice in the dark prior to analysis by flow cytometry. 5,000 cells were analyzed in the FL2 channel (λemission=585+/−21 nm) of a FACSort flow cytometer (Becton-Dickinson, San Jose, Calif.) equipped with an Ar- ion laser (λexcitation=488 nm)

[7] = (+/−) cultures, 1 hr exposure, either formulation

| SMILES | expression of plasmid delivered directly to tumor cells after drug treatment (tumor cells) | tumor growth (MCA 207 tumor [1]) | tumor growth vs HSV-TK/ganciclovir system alone (MCA 207 tumor [2]) | effect of cell cycle arrest on internalization of lipoplexes (SK-OV-3 cells [3]) | time after removal of aphidicolin at which luciferase expression begins to increase (SK-OV-3 cells [4]; [7]) | time after removal of aphidicolin of maximum luciferase expression (SK-OV-3 cells [4]; [7]) | increase in luciferase expression, (+/−) vs (−/−) culture (SK-OV-3 cells [4]; SPLPs, 1 hr exposure) | difference in luciferase activity between (−/−) and (+/+) cultures (SK-OV-3 cells [4]; SPLPs) | increase in luciferase expression, (+/−) vs (−/−) culture (SK-OV-3 cells [4]; lipoplexes, 1 hr exposure) | decrease in luciferase gene expression, (+/+) culture (SK-OV-3 cells [4]; lipoplexes, 24 hrs continuous exposure, continued aphidicolin) | luciferase expression of (+/−) cultures vs (−/−) control (SK-OV-3 cells [4]; lipoplexes, 24 hrs, aphidicolin removed) | difference in luciferase activity between (−/−) and (+/+) cultures (SK-OV-3 cells [4]; lipoplexes) | pattern of SFV-luc gene expression between (−/−), (+/−) and (+/+) cultures (SK-OV-3 cells [5]) | effect on level of luciferase gene expression (HeLa-luc cells) | cells in the G2/M phase, (+/−) culture (SK-OV-3 cells [6]; 16 hrs after removal of aphidicolin block) | cells progressed into the G1 phase after mitotic division, (+/−) culture (SK-OV-3 cells [6]; 22 hrs after removal of aphidicolin block) | cells remaining arrested in the G1 phase, (+/+) culture (SK-OV-3 cells [6]; end of the 24 incubation with lipoplexes, continued aphidicolin) | cells remaining arrested in the G1 phase, (+/+) cultures (SK-OV-3 cells [6]; throughout kinetics experiments (to 26 hrs) with lipoplexes or SPLPs) |
| --- | --- | --- | --- | --- | --- | --- | --- | --- | --- | --- | --- | --- | --- | --- | --- | --- | --- | --- |
| N.N.[Cl][Pt][Cl] [Cisplatin] | improved expression |  |  |  |  |  |  |  |  |  |  |  |  |  |  |  |  |  |
| CC[C@]1(O)C[C@H]2CN(CCc3c([nH]c4ccccc34)[C@@](C(=O)OC)(c3cc4c(cc3OC)N(C=O)[C@H]3[C@@](O)(C(=O)OC)[C@H](OC(C)=O)[C@]5(CC)C=CCN6CC[C@]43[C@@H]65)C2)C1 [Vincristine] | not found to be effective | Tumor growth is inhibited and regression in tumor size is visible | inhibits growth of tumors and promotes tumor regression to a significantly greater degree |  |  |  |  |  |  |  |  |  |  |  |  |  |  |  |
| C[C@@]1(CO)[C@H](O)CC[C@@]2(C)[C@H]1CC[C@H]1C[C@@H]3C[C@@]12CC[C@]3(O)CO [aphidicolin] |  |  |  | does not affect the internalization of lipoplexes | approximately 10 hours | 12 h | 8 fold | 20 fold | 3 fold | 20 fold | did not differ significantly | approximately 40 fold | no significant difference | did not significantly affect | approximately 85% | ~45% | approximately 95% | 95% |
